What all share (type): biochemical
The test system of assay [1] is PDE4 enzyme purified from U937 human monocytic cells. In words: PDE4 (U937 cell-derived) enzyme assay. As for the experimental part:
PDE4 enzyme is purified from U937 human monocytic cells by gel filtration chromatography as previously described (Muller et al. Bioorg. & Med Chem Lett 8:2669-2674 (1998)). Phosphodiesterase reactions are carried out in 50 mM Tris HCl pH 7.5, 5 mM MgCl2, 1 μM cAMP, 10 nM [^3H]-cAMP for 30 minutes at 30° C., terminated by boiling, treated with 1 mg/ml snake venom and separated using AG-1XS ion exchange resin (BioRad) as described (Id). Reactions consumed less than 15% of available substrate.

The target of assay [2] is T1, PDE5 from human platelets (Homo sapiens, UniProt O76074).
T1 construct: PDE3 and PDE5 from human platelets; tissue MDS Pharma Services; host or cells: human platelets
Nature of the assay: PDE5 enzyme assay (PDE selectivity). To be noted: read-out: PDE5 (% inhibit at 10 μM). As for the experimental part:
(§1) The phosphodiesterase selectivity of 2,5-Diamino-4-(4-chloro-phenyl)-thieno[2,3-d]pyrimidine-6-carboxylic acid amide was assessed by testing against bovine PDE1, human PDE2, PDE3 and PDE5 from human platelets and PDE6 from bovine retinal rod outer segments (MDS Pharma Services).

Assay [3] relates to bovine PDE1. In words: PDE1 enzyme assay (PDE selectivity). Here is the method: as §1
For assay [4], the target named is T2, PDE3 from human platelets (Homo sapiens, UniProt Q14432).
T2 construct: PDE3 and PDE5 from human platelets; tissue MDS Pharma Services; host or cells: human platelets
In words: PDE3 enzyme assay (PDE selectivity). To be noted: read-out: PDE3 (% inhibit at 10 μM). Here is the method:
as §1

In assay [5] the target is T3, human PDE2 (Homo sapiens, UniProt O00408).
T3 construct: MDS Pharma Services
Nature of the assay: PDE2 enzyme assay (PDE selectivity). Conditions: read-out: PDE2 (% inhibit at 10 μM). Here is the method:
as §1

For assay [6], the target named is T4, PDE6 from bovine retinal rod outer segments (Bos taurus, UniProt P11541+P23439).
T4 construct: PDE6 from bovine retinal rod outer segments; tissue MDS Pharma Services; host or cells: bovine retinal rod outer segments
T4 sequence (P11541 2-856 limits assumed): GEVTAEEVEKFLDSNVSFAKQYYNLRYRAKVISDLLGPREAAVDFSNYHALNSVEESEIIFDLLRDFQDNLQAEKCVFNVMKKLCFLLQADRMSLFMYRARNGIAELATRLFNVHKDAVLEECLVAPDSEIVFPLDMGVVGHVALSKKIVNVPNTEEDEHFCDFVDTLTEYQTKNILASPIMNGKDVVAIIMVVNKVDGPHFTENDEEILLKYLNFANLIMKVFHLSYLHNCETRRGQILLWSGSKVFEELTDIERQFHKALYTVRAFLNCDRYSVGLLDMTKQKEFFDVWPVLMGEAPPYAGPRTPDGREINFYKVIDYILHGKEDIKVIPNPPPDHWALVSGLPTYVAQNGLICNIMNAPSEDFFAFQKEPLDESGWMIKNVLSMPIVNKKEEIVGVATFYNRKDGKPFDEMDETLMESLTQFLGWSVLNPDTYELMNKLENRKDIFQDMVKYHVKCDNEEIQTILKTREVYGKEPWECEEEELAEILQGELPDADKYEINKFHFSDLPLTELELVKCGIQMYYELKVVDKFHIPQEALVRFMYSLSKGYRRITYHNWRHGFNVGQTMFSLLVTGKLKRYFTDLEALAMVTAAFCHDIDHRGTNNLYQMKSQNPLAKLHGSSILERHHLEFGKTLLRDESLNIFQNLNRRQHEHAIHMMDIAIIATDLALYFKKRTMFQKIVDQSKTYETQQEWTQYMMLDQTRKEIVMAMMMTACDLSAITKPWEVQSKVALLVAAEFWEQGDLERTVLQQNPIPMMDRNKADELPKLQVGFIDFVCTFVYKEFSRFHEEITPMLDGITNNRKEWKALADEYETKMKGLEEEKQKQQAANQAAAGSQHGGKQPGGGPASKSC
T4 sequence (P23439 2-850 limits assumed): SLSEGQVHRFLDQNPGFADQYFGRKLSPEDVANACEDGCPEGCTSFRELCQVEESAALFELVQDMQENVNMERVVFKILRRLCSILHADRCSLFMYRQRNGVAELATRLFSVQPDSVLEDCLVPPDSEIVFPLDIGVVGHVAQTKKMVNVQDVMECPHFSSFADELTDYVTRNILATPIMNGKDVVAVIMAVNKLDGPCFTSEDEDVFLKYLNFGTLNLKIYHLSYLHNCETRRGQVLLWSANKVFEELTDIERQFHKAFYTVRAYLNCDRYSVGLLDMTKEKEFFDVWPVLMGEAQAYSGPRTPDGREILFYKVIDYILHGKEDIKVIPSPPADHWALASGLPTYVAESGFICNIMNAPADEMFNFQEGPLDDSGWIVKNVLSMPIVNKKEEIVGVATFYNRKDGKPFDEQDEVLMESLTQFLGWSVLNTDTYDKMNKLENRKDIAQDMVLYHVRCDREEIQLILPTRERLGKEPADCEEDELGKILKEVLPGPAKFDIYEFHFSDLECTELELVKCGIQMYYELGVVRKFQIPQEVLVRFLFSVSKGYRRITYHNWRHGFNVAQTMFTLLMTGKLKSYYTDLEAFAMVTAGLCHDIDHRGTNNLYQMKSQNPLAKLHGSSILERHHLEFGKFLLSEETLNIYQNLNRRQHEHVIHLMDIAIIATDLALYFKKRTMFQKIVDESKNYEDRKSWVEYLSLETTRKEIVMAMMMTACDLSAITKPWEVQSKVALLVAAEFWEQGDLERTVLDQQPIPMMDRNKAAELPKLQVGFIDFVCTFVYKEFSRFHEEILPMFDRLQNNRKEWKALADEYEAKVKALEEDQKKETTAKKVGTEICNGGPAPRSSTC
In words: PDE6 enzyme assay (PDE selectivity). Conditions: read-out: PDE6 (% inhibit at 10 μM). Here is the method:
as §1

T2 sequence (Q14432 whole entry): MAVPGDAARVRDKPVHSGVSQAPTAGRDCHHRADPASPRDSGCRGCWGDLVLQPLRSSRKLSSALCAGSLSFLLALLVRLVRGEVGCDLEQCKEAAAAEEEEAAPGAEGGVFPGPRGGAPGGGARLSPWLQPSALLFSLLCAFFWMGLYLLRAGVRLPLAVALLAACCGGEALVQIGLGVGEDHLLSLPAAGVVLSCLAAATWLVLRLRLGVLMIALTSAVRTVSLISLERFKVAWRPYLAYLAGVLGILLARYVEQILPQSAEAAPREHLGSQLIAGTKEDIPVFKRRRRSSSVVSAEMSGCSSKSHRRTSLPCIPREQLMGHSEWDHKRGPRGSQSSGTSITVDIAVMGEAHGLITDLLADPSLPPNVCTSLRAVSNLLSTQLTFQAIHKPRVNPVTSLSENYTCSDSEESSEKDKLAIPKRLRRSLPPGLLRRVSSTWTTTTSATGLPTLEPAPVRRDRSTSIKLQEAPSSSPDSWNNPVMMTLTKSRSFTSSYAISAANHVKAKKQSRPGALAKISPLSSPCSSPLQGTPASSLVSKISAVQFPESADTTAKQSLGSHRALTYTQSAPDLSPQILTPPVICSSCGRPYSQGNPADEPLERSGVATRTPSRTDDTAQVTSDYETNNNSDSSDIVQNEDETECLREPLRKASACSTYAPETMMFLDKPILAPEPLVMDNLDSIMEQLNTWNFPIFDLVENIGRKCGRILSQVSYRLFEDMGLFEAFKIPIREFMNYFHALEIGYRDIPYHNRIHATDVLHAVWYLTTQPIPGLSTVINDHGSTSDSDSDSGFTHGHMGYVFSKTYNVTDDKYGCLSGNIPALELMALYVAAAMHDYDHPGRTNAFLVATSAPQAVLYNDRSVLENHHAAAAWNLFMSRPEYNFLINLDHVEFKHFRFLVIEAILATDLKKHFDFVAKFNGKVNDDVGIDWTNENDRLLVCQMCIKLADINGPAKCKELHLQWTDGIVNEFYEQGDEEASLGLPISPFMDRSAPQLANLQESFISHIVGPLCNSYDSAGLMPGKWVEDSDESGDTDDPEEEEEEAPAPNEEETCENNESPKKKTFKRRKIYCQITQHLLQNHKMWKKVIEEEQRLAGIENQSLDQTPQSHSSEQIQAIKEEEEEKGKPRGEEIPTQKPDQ
T3 sequence (O00408 whole entry): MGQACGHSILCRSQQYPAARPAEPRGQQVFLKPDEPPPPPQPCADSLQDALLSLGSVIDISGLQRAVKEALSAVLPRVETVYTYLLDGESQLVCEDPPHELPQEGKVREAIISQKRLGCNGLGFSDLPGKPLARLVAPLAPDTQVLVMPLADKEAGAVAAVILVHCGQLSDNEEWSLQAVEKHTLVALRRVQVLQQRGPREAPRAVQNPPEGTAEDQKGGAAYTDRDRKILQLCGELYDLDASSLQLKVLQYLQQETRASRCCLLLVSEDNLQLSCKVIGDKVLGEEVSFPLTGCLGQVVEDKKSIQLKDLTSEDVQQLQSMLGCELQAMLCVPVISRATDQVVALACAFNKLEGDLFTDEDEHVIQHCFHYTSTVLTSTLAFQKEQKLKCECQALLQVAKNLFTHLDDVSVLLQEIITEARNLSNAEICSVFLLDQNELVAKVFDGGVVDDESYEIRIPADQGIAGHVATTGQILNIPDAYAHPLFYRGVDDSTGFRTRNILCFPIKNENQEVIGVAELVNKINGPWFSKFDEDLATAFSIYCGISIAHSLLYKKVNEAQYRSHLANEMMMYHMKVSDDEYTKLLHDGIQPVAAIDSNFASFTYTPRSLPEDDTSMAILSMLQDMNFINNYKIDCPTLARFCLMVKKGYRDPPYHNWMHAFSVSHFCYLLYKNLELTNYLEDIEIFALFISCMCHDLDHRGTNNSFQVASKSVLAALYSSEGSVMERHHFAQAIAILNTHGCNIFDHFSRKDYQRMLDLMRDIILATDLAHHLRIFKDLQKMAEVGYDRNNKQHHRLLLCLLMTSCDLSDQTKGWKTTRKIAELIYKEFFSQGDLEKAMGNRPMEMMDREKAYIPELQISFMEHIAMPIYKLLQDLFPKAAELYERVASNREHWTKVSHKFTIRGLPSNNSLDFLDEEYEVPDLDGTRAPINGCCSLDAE

The term IC50 denotes the point on the concentration scale where inhibition reaches its midpoint. A high value points to lower potency. With `NC(=O)c1sc2nc(N)nc(-c3ccc(Cl)cc3)c2c1N` [2,5-Diamino-4-(4-chloro-phenyl)-thieno[2,3-d]pyrimidine-6-carboxylic acid amide], the IC50 in assay [1] turned out to be 120 nM. Besides, the inhibition at 10 µM in assay [2] was -2%; in assay [4] it was 14%; in assay [5], 8%; in assay [6] it was 8%. In addition, the “PDE1 (% inhibit at 10 μM)” value in assay [3] turned out to be 18%.

The values above are taken from US20080004271A1, “Inhibitors of TNFalpha, PDE4 and B-RAF, compositions thereof and methods of use therewith” (priority 2006, published 2008).
